Measured values from ChEMBL document CHEMBL4602605, “Fluoroquinolones structural and medicinal developments (2013-2018): Where are we now?” (Bioorg Med Chem, 2019).
In brackets after ≈: the same amount, converted by molar mass.

Key:
Enterococcus faecalis [1] = assay: Antimicrobial activity against Enterococcus faecalis ATCC 29212 incubated for 24 hrs by serial dilution method; format: functional; conditions: ATCC 29212, 24 h
Staphylococcus aureus [2] = assay: Antimicrobial activity against methicillin-susceptible Staphylococcus aureus ATCC 29213 incubated for 24 hrs by serial dilution method; format: functional; conditions: ATCC 29213, 24 h
Staphylococcus aureus [3] = assay: Antimicrobial activity against methicillin-resistant Staphylococcus aureus ATCC 33591 incubated for 24 hrs by serial dilution method; format: functional; conditions: ATCC 33591, 24 h
Escherichia coli [4] = assay: Antimicrobial activity against Escherichia coli ATCC 35218 incubated for 24 hrs by serial dilution method; format: functional; conditions: ATCC 35218, 24 h
Klebsiella pneumoniae = assay: Antimicrobial activity against Klebsiella pneumoniae ATCC 35657 incubated for 24 hrs by serial dilution method; format: functional; conditions: ATCC 35657, 24 h
Moraxella catarrhalis = assay: Antimicrobial activity against Moraxella catarrhalis ATCC 25238 incubated for 24 hrs by serial dilution method; format: functional; conditions: ATCC 25238, 24 h
A549 = assay: Growth inhibition of human A549 cells at 10 uM incubated for 48 hrs by MTT assay relative to control; format: functional; conditions: A549, 48 h, read-out: GI
HCT-116 = assay: Growth inhibition of human HCT116 cells at 10 uM incubated for 48 hrs by MTT assay relative to control; format: functional; conditions: HCT-116, 48 h, read-out: GI
HeLa = assay: Growth inhibition of human HeLa cells at 10 uM incubated for 48 hrs by MTT assay relative to control; format: functional; conditions: read-out: GI
PANC-1 = assay: Growth inhibition of human PANC1 cells at 10 uM incubated for 48 hrs by MTT assay; format: functional; conditions: PANC-1, 48 h, read-out: GI
Pseudomonas aeruginosa = assay: Antimicrobial activity against Pseudomonas aeruginosa ATCC 43288 incubated for 18 to 24 hrs by microbroth dilution method; format: functional
[5] = system: Yersinia pseudotuberculosis; assay: Antimicrobial activity against Yersinia pseudotuberculosis ATCC 911 incubated for 18 to 24 hrs by microbroth dilution method; format: functional
Staphylococcus aureus [6] = assay: Antimicrobial activity against Staphylococcus aureus ATCC 25923 incubated for 18 to 24 hrs by microbroth dilution method; format: functional
Enterococcus faecalis [7] = assay: Antimicrobial activity against Enterococcus faecalis ATCC 29212 incubated for 18 to 24 hrs by microbroth dilution method; format: functional
Bacillus cereus = assay: Antimicrobial activity against Bacillus cereus 709 Roma incubated for 18 to 24 hrs by microbroth dilution method; format: functional
[8] = system: Mycolicibacterium smegmatis; assay: Antimicrobial activity against Mycobacterium smegmatis ATCC 607 incubated for 48 to 72 hrs by microbroth dilution method; format: functional
Escherichia coli [9] = assay: Antimicrobial activity against Escherichia coli ATCC 25922 incubated for 18 to 24 hrs by microbroth dilution method; format: functional
[10] = system: Mycolicibacterium smegmatis; assay: Antimicrobial activity against Mycobacterium smegmatis incubated for 30 to 32 hrs by spectrophotometry based assay; format: functional
PC-3 = assay: Growth inhibition of human PC3 cells by MTT assay; format: functional, cell-based
Candida albicans = assay: Antifungal activity against Candida albicans after overnight incubation by agar well diffusion method; format: functional

| SMILES | MIC (Enterococcus faecalis [1]) | MIC (Staphylococcus aureus [2]) | MIC (Staphylococcus aureus [3]) | MIC (Escherichia coli [4]) | MIC (Klebsiella pneumoniae) | MIC (Moraxella catarrhalis) | inhibition of growth at 10 µM (A549) | inhibition of growth at 10 µM (HCT-116) | inhibition of growth at 10 µM (HeLa) | inhibition of growth at 10 µM (PANC-1) | MIC (Pseudomonas aeruginosa) | MIC [5] | MIC (Staphylococcus aureus [6]) | MIC (Enterococcus faecalis [7]) | MIC (Bacillus cereus) | MIC [8] | MIC (Escherichia coli [9]) | MIC [10] | IC50 (PC-3) | inhibition zone (IZ) (Candida albicans) |
| --- | --- | --- | --- | --- | --- | --- | --- | --- | --- | --- | --- | --- | --- | --- | --- | --- | --- | --- | --- | --- |
| CCN(CC)Cc1cn(-c2cc3c(cc2F)c(=O)c(C(=O)NO)cn3C2CC2)nn1 | 64 µg/mL (≈ 154 µM) | 64 µg/mL (≈ 154 µM) | > 64 µg/mL | 16 µg/mL (≈ 38.6 µM) | 8 µg/mL (≈ 19.3 µM) | 16 µg/mL (≈ 38.6 µM) | 40% | 30% | 10% | 30% | – | – | – | – | – | – | – | – | – | – |
| CC(C)NCc1cn(-c2cc3c(cc2F)c(=O)c(C(=O)NO)cn3C2CC2)nn1 | > 64 µg/mL | > 64 µg/mL | > 64 µg/mL | > 64 µg/mL | > 64 µg/mL | > 64 µg/mL | 35% | 30% | 30% | 15% | – | – | – | – | – | – | – | – | – | – |
| CN(C)Cc1cn(-c2cc3c(cc2F)c(=O)c(C(=O)NO)cn3C2CC2)nn1 | > 64 µg/mL | > 64 µg/mL | > 64 µg/mL | > 64 µg/mL | > 64 µg/mL | > 64 µg/mL | 30% | 15% | 23% | 20% | – | – | – | – | – | – | – | – | – | – |
| O=C(O)c1cn(C2CC2)c2cc(N3CCN(Cn4nc(CN5CCN(c6ccc([N+](=O)[O-])cc6)CC5)oc4=S)CC3)c(F)cc2c1=O | – | – | – | – | – | – | – | – | – | – | 0.03 µg/mL (≈ 0.0451 µM) | 0.03 µg/mL (≈ 0.0451 µM) | 0.03 µg/mL (≈ 0.0451 µM) | 0.03 µg/mL (≈ 0.0451 µM) | 0.03 µg/mL (≈ 0.0451 µM) | 0.03 µg/mL (≈ 0.0451 µM) | 0.03 µg/mL (≈ 0.0451 µM) | – | – | – |
| CCn1cc(C(=O)O)c(=O)c2cc(F)c(N3CCN(Cn4nc(CN5CCN(c6ccc([N+](=O)[O-])cc6)CC5)oc4=S)CC3)cc21 | – | – | – | – | – | – | – | – | – | – | < 0.25 µg/mL | < 0.25 µg/mL | 0.25 µg/mL (≈ 0.383 µM) | < 0.25 µg/mL | < 0.25 µg/mL | 1 µg/mL (≈ 1.53 µM) | 0.03 µg/mL (≈ 0.046 µM) | – | – | – |
| CCn1cc(C(=O)O)c(=O)c2cc(F)c(N3CCN(Cn4nc(CN5CCN(c6ccc([N+](=O)[O-])cc6)CC5)n(-c5ccc(F)cc5)c4=S)CC3)cc21 | – | – | – | – | – | – | – | – | – | – | 0.48 µg/mL (≈ 0.644 µM) | 0.24 µg/mL (≈ 0.322 µM) | 0.48 µg/mL (≈ 0.644 µM) | 0.25 µg/mL (≈ 0.335 µM) | 0.24 µg/mL (≈ 0.322 µM) | 0.244 µg/mL (≈ 0.327 µM) | < 0.03 µg/mL | – | – | – |
| CCn1c(CN2CCN(c3ccc([N+](=O)[O-])cc3)CC2)nn(CN2CCN(c3cc4c(cc3F)c(=O)c(C(=O)O)cn4CC)CC2)c1=S | – | – | – | – | – | – | – | – | – | – | 0.25 to 0.5 µg/mL (≈ 0.368 to 0.736 µM) | 0.25 µg/mL (≈ 0.368 µM) | 0.25 to 0.99 µg/mL (≈ 0.368 to 1.46 µM) | 0.122 µg/mL (≈ 0.179 µM) | 0.122 to 0.25 µg/mL (≈ 0.179 to 0.368 µM) | 0.244 µg/mL (≈ 0.359 µM) | ≤ 0.03 µg/mL | – | – | – |
| CCCN(CCC)Cc1cn(-c2cc3c(cc2F)c(=O)c(C(=O)NO)cn3C2CC2)nn1 | 64 µg/mL (≈ 145 µM) | 64 µg/mL (≈ 145 µM) | > 64 µg/mL | 64 µg/mL (≈ 145 µM) | 32 µg/mL (≈ 72.3 µM) | 64 µg/mL (≈ 145 µM) | 20% | 10% | 15% | 15% | – | – | – | – | – | – | – | – | – | – |
| CCn1cc(C(=O)O)c(=O)c2cc(F)c(N3CCN(Cn4nc(CN5CCN(c6ccc([N+](=O)[O-])cc6)CC5)n(Cc5ccccc5)c4=O)CC3)cc21 | – | – | – | – | – | – | – | – | – | – | 0.24 to 0.5 µg/mL (≈ 0.331 to 0.689 µM) | – | 0.24 to 0.25 µg/mL (≈ 0.331 to 0.344 µM) | 0.48 to 0.5 µg/mL (≈ 0.661 to 0.689 µM) | 0.24 to 0.25 µg/mL (≈ 0.331 to 0.344 µM) | 0.244 to 0.99 µg/mL (≈ 0.336 to 1.36 µM) | 0.25 to 0.99 µg/mL (≈ 0.344 to 1.36 µM) | – | – | – |
| COc1c(N2CCN(C)CC2)c(F)cc2c(=O)c(C(=O)N/N=C\c3c(Cl)cccc3Cl)cn(C3CC3)c12 | – | – | – | – | – | – | – | – | – | – | – | – | – | – | – | – | – | 27 µM (≈ 14.8 µg/mL) | 4.9 µg/mL (≈ 8.97 µM) | 9 mm |
| COc1c(N2CCN(C)CC2)c(F)cc2c(=O)c(C(=O)N/N=C\c3cccc(O)c3)cn(C3CC3)c12 | – | – | – | – | – | – | – | – | – | – | – | – | – | – | – | – | – | 27.2 µM (≈ 13.4 µg/mL) | 3.4 µg/mL (≈ 6.89 µM) | – |
| O=C(NO)c1cn(C2CC2)c2cc(-n3cc(CN4CCCCC4)nn3)c(F)cc2c1=O | > 64 µg/mL | > 64 µg/mL | > 64 µg/mL | 64 µg/mL (≈ 150 µM) | 64 µg/mL (≈ 150 µM) | 64 µg/mL (≈ 150 µM) | 10% | 20% | 5% | 10% | – | – | – | – | – | – | – | – | – | – |
| O=C(NO)c1cn(C2CC2)c2cc(-n3cc(CN4CCOCC4)nn3)c(F)cc2c1=O | > 64 µg/mL | > 64 µg/mL | > 64 µg/mL | 8 µg/mL (≈ 18.7 µM) | 4 µg/mL (≈ 9.34 µM) | 8 µg/mL (≈ 18.7 µM) | 15% | 15% | 20% | 13% | – | – | – | – | – | – | – | – | – | – |
